Where two headings read alike, the source gives them in different places.

Results on one compound are retold here after PMC9455983 (International Journal of Molecular Sciences, 2022).

The test system of one data set is C57BL/6J mice. Put plainly: Acute antinociceptive tolerance determination. Particulars: i.c.v.
Another data set deals with T1, mu-opioid receptor (MOR) (Rattus norvegicus, UniProt P33535).
T1 construct: Rat cortices were homogenized using 50 mM Tris, pH 7.4, and centrifuged at 16,500 rpm for 10 min; from tissue; host or cells: rat cortex membranes
T1 sequence (P33535 whole entry): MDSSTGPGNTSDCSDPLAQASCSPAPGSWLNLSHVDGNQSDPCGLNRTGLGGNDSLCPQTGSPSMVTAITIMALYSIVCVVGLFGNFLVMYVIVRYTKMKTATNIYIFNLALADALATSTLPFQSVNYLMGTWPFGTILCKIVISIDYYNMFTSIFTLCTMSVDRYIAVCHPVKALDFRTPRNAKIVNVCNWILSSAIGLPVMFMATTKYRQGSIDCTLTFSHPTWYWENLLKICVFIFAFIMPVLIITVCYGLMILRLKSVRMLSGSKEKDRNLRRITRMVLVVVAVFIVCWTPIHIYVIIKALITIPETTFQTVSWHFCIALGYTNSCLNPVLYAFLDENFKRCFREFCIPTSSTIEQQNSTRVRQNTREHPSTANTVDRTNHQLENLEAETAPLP
Put plainly: MOR radioligand competition binding assay ([3H]-DAMGO). Particulars: Mu screening results. The procedure, abridged:
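Rat cortical membranes in 50 mM Tris pH 7.4 with 2 mg/mL bovine serum were incubated with 2 nM [3H]-DAMGO and test compound. Bound radioligand was separated by filtration on BSA-soaked GF/B filters and counted by scintillation. Values are mean ± SD of two experiments, each in duplicate.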

Data set [1] concerns the target T2, delta-opioid receptor (DOR) (Rattus norvegicus, UniProt P33533).
T2 construct: Rat cortices were homogenized using 50 mM Tris, pH 7.4, 10 mM MgCl2-6H2O, 200 µM PMSF; from tissue; host or cells: rat cortex membranes
As to the kind of experiment: DOR radioligand competition binding assay ([3H]-DPDPE). Particulars: Delta screening results. The procedure, abridged:
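Competition binding on rat cortical homogenate in 50 mM Tris pH 7.4, 10 mM MgCl2, 200 µM PMSF with 2 nM [3H]-DPDPE, 2.5 h at 25 °C. Unlabeled DPDPE defined nonspecific binding; filtration onto BSA-soaked GF/B filters, scintillation counting. Mean ± SD of two experiments in duplicate.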
For orientation: Displacement assays read how much labelled ligand stays bound in the presence of the test substance.

The mark [2] stands for this setting: mean of two experiments, read-out: Ki.

T2 sequence (P33533 whole entry): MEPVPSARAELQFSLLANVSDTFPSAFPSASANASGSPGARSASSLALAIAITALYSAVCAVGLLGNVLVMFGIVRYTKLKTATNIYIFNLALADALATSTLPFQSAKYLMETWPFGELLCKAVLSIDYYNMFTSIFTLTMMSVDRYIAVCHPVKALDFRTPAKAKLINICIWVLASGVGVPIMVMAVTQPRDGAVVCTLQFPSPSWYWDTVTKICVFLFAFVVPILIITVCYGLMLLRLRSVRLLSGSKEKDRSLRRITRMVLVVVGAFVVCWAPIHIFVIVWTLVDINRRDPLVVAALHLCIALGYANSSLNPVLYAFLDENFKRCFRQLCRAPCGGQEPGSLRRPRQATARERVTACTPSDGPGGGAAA

`Cc1cc(O)cc(C)c1C[C@H]1CN([C@@H](Cc2c(C)cc(O)cc2C)CN2C(=N)NC[C@@H]2C)C(=N)N1` [1968-22]: in the data set with C57BL/6J mice, the “acute antinociceptive tolerance (in words)” value is recorded as “significant tolerance”. Further, the “ED50 (95% C.I.) of second dose at 8 h” value with C57BL/6J mice (after ED50 pretreatment at 0 h) was 0.18 (0.09–0.32) nmol. Moreover, the Ki at mu-opioid receptor (MOR) (experiment 1, unit inferred, read-out: Ki (Exp 1)) was 7.68 nM; on mu-opioid receptor (MOR) (experiment 2, unit inferred, read-out: Ki (Exp 2)), 7.31 nM; on mu-opioid receptor (MOR) (mean of Exp 1 and Exp 2, unit inferred, read-out: MEAN (Ki)), 7.49 nM; at mu-opioid receptor (MOR) (setting [2]) it was 7 nM; in data set [1] (first Ki column, unit not printed (apparently M), read-out: Ki (first column)), 260 nM; in data set [1] (mean of both Ki, unit inferred, read-out: MEAN (Ki)), 265 nM. The Ki in data set [1] (setting [2]) worked out at 265 nM; in data set [1] (second Ki column, unit not printed (apparently M), read-out: Ki (second column)) it was 271 nM.
